# Data taken from PubChem BioAssay (NCI).
#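 GI50 = concentration required for 50% inhibition of growth. TGI marks complete inhibition of growth.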
# Key:
# Test in all cases: DTP human tumour cell line panel, 384-well format
# SK-MEL-28 melanoma = system: SK-MEL-28 melanoma
# UACC-257 melanoma = system: UACC-257 melanoma
# ACHN renal = system: ACHN renal
# SNB-75 CNS = system: SNB-75 CNS
# PC-3 prostate = system: PC-3 prostate
# TK-10 renal = system: TK-10 renal
# SN12C renal = system: SN12C renal
# U251 glioblastoma = system: U251 glioblastoma
# CCRF-CEM leukemia = system: CCRF-CEM leukemia
# HT29 colon = system: HT29 colon
# UACC-62 melanoma = system: UACC-62 melanoma
# HCT-15 colon = system: HCT-15 colon
# IGROV1 ovarian = system: IGROV1 ovarian
# CAKI-1 renal = system: CAKI-1 renal
# SF-539 CNS = system: SF-539 CNS
# NCI-H522 lung = system: NCI-H522 lung
# NCI-H460 NSCLC = system: NCI-H460 NSCLC
# OVCAR-8 ovarian = system: OVCAR-8 ovarian
# SR leukemia = system: SR leukemia
# HS 578T breast = system: HS 578T breast
# SF-268 CNS = system: SF-268 CNS
# BT-549 breast = system: BT-549 breast
# MOLT-4 leukemia = system: MOLT-4 leukemia
# DU-145 prostate = system: DU-145 prostate
# RPMI-8226 leukemia = system: RPMI-8226 leukemia
# NCI-H226 lung = system: NCI-H226 lung
# SNB-19 CNS = system: SNB-19 CNS
# SK-OV-3 ovarian = system: SK-OV-3 ovarian
# OVCAR-3 ovarian = system: OVCAR-3 ovarian
# T-47D breast = system: T-47D breast
# HOP-92 NSCLC = system: HOP-92 NSCLC
# K-562 leukemia = system: K-562 leukemia
# NCI/ADR-RES ovarian = system: NCI/ADR-RES ovarian
# A498 renal = system: A498 renal
# OVCAR-5 ovarian = system: OVCAR-5 ovarian
# M14 melanoma = system: M14 melanoma
# MDA-MB-435 melanoma = system: MDA-MB-435 melanoma
# HL-60(TB) leukemia = system: HL-60(TB) leukemia
# UO-31 renal = system: UO-31 renal
# SF-295 CNS = system: SF-295 CNS
# MDA-MB-231 breast = system: MDA-MB-231 breast
# RXF 393 renal = system: RXF 393 renal
# COLO 205 colon = system: COLO 205 colon
# OVCAR-4 ovarian = system: OVCAR-4 ovarian
# LOX IMVI melanoma = system: LOX IMVI melanoma
# A549 NSCLC = system: A549 NSCLC
# MALME-3M melanoma = system: MALME-3M melanoma
# SW-620 colon = system: SW-620 colon
# MDA-MB-468 breast = system: MDA-MB-468 breast
# EKVX NSCLC = system: EKVX NSCLC
# KM12 colon = system: KM12 colon
# NCI-H322M lung = system: NCI-H322M lung
# HCC-2998 colon = system: HCC-2998 colon
# 786-0 renal = system: 786-0 renal
# NCI-H23 lung = system: NCI-H23 lung
# MCF7 breast = system: MCF7 breast
# HOP-62 NSCLC = system: HOP-62 NSCLC
# SK-MEL-5 melanoma = system: SK-MEL-5 melanoma
structure (smiles),measurement,setting,value
COc1cc2c(Oc3ccc4[nH]c(C)cc4c3F)ncnc2cc1OCCCN1CCCC1,GI50,SK-MEL-28 melanoma,1660 nM
same,TGI,SK-MEL-28 melanoma,3030 nM
same,GI50,UACC-257 melanoma,1610 nM
same,TGI,UACC-257 melanoma,2970 nM
same,GI50,ACHN renal,1200 nM
same,TGI,ACHN renal,2640 nM
same,GI50,SNB-75 CNS,1320 nM
same,TGI,SNB-75 CNS,2740 nM
same,GI50,PC-3 prostate,1770 nM
same,TGI,PC-3 prostate,3300 nM
same,GI50,TK-10 renal,1760 nM
same,TGI,TK-10 renal,3280 nM
same,GI50,SN12C renal,591 nM
same,TGI,SN12C renal,2410 nM
same,GI50,U251 glioblastoma,1580 nM
same,TGI,U251 glioblastoma,3000 nM
same,GI50,CCRF-CEM leukemia,1630 nM
same,TGI,CCRF-CEM leukemia,2990 nM
same,GI50,HT29 colon,1460 nM
same,TGI,HT29 colon,2800 nM
same,GI50,UACC-62 melanoma,1630 nM
same,TGI,UACC-62 melanoma,3000 nM
same,GI50,HCT-15 colon,1210 nM
same,TGI,HCT-15 colon,2530 nM
same,GI50,IGROV1 ovarian,632 nM
same,TGI,IGROV1 ovarian,1950 nM
same,GI50,CAKI-1 renal,1050 nM
same,TGI,CAKI-1 renal,2360 nM
same,GI50,SF-539 CNS,488 nM
same,TGI,SF-539 CNS,1830 nM
same,GI50,NCI-H522 lung,1550 nM
same,TGI,NCI-H522 lung,2910 nM
same,GI50,NCI-H460 NSCLC,1780 nM
same,TGI,NCI-H460 NSCLC,3270 nM
same,GI50,OVCAR-8 ovarian,1580 nM
same,TGI,OVCAR-8 ovarian,2960 nM
same,GI50,SR leukemia,1560 nM
same,TGI,SR leukemia,2910 nM
same,GI50,HS 578T breast,1260 nM
same,TGI,HS 578T breast,2530 nM
same,GI50,SF-268 CNS,1660 nM
same,TGI,SF-268 CNS,3220 nM
same,GI50,BT-549 breast,1040 nM
same,TGI,BT-549 breast,2220 nM
same,GI50,MOLT-4 leukemia,1380 nM
same,TGI,MOLT-4 leukemia,2680 nM
same,GI50,DU-145 prostate,1920 nM
same,TGI,DU-145 prostate,3770 nM
same,GI50,RPMI-8226 leukemia,1610 nM
same,TGI,RPMI-8226 leukemia,2970 nM
same,GI50,NCI-H226 lung,306 nM
same,TGI,NCI-H226 lung,1960 nM
same,GI50,SNB-19 CNS,1570 nM
same,TGI,SNB-19 CNS,4710 nM
same,GI50,SK-OV-3 ovarian,1260 nM
same,TGI,SK-OV-3 ovarian,2530 nM
same,GI50,OVCAR-3 ovarian,1630 nM
same,TGI,OVCAR-3 ovarian,3060 nM
same,GI50,T-47D breast,1300 nM
same,TGI,T-47D breast,2580 nM
same,GI50,HOP-92 NSCLC,578 nM
same,TGI,HOP-92 NSCLC,1920 nM
same,GI50,K-562 leukemia,1130 nM
same,TGI,K-562 leukemia,2370 nM
same,GI50,NCI/ADR-RES ovarian,2350 nM
same,TGI,NCI/ADR-RES ovarian,5900 nM
same,GI50,A498 renal,1240 nM
same,TGI,A498 renal,2590 nM
same,GI50,OVCAR-5 ovarian,1390 nM
same,TGI,OVCAR-5 ovarian,3180 nM
same,GI50,M14 melanoma,1680 nM
same,TGI,M14 melanoma,3060 nM
same,GI50,MDA-MB-435 melanoma,1770 nM
same,TGI,MDA-MB-435 melanoma,3410 nM
same,GI50,HL-60(TB) leukemia,1930 nM
same,TGI,HL-60(TB) leukemia,3350 nM
same,GI50,UO-31 renal,1390 nM
same,TGI,UO-31 renal,2770 nM
same,GI50,SF-295 CNS,1730 nM
same,TGI,SF-295 CNS,3130 nM
same,GI50,MDA-MB-231 breast,1760 nM
same,TGI,MDA-MB-231 breast,3530 nM
same,GI50,RXF 393 renal,1380 nM
same,TGI,RXF 393 renal,2690 nM
same,GI50,COLO 205 colon,1690 nM
same,TGI,COLO 205 colon,3350 nM
same,GI50,OVCAR-4 ovarian,1140 nM
same,TGI,OVCAR-4 ovarian,2430 nM
same,GI50,LOX IMVI melanoma,1620 nM
same,TGI,LOX IMVI melanoma,2990 nM
same,GI50,A549 NSCLC,1460 nM
same,TGI,A549 NSCLC,2970 nM
same,GI50,MALME-3M melanoma,1540 nM
same,TGI,MALME-3M melanoma,2880 nM
same,GI50,SW-620 colon,1630 nM
same,TGI,SW-620 colon,3100 nM
same,GI50,MDA-MB-468 breast,1040 nM
same,TGI,MDA-MB-468 breast,2240 nM
same,GI50,EKVX NSCLC,1160 nM
same,TGI,EKVX NSCLC,2840 nM
same,GI50,KM12 colon,1810 nM
same,TGI,KM12 colon,3280 nM
same,GI50,NCI-H322M lung,1790 nM
same,TGI,NCI-H322M lung,4560 nM
same,GI50,HCC-2998 colon,1590 nM
same,TGI,HCC-2998 colon,2970 nM
same,GI50,786-0 renal,1330 nM
same,TGI,786-0 renal,2630 nM
same,GI50,NCI-H23 lung,1150 nM
same,TGI,NCI-H23 lung,2800 nM
same,GI50,MCF7 breast,1400 nM
same,TGI,MCF7 breast,2740 nM
same,GI50,HOP-62 NSCLC,1500 nM
same,TGI,HOP-62 NSCLC,2930 nM
same,GI50,SK-MEL-5 melanoma,1300 nM
same,TGI,SK-MEL-5 melanoma,2580 nM
